Measurements reported in patent US20240246992A1, “MACROCYCLIC LRRK2 KINASE INHIBITORS” (LES LABORATOIRES SERVIER, priority 2021, published 2024).

target: human recombinant LRRK2 protein (Homo sapiens, UniProt Q5S007); assay: LRRK2 kinase activity assay (ADP-Glo, LRRKtide peptide); format: biochemical; conditions: human recombinant LRRK2 wt, LRRKtide peptide and ATP, 1 h at 37° C.
How it was run: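 ADP-Glo luminescence read-out of a peptide assay: compound, ATP and LRRKtide substrate combined with recombinant human LRRK2 and incubated at 37 °C for 1 h. Ten-point data, N=2, curve-fitted to IC50.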

Chain of human recombinant LRRK2 protein (Q5S007 whole entry): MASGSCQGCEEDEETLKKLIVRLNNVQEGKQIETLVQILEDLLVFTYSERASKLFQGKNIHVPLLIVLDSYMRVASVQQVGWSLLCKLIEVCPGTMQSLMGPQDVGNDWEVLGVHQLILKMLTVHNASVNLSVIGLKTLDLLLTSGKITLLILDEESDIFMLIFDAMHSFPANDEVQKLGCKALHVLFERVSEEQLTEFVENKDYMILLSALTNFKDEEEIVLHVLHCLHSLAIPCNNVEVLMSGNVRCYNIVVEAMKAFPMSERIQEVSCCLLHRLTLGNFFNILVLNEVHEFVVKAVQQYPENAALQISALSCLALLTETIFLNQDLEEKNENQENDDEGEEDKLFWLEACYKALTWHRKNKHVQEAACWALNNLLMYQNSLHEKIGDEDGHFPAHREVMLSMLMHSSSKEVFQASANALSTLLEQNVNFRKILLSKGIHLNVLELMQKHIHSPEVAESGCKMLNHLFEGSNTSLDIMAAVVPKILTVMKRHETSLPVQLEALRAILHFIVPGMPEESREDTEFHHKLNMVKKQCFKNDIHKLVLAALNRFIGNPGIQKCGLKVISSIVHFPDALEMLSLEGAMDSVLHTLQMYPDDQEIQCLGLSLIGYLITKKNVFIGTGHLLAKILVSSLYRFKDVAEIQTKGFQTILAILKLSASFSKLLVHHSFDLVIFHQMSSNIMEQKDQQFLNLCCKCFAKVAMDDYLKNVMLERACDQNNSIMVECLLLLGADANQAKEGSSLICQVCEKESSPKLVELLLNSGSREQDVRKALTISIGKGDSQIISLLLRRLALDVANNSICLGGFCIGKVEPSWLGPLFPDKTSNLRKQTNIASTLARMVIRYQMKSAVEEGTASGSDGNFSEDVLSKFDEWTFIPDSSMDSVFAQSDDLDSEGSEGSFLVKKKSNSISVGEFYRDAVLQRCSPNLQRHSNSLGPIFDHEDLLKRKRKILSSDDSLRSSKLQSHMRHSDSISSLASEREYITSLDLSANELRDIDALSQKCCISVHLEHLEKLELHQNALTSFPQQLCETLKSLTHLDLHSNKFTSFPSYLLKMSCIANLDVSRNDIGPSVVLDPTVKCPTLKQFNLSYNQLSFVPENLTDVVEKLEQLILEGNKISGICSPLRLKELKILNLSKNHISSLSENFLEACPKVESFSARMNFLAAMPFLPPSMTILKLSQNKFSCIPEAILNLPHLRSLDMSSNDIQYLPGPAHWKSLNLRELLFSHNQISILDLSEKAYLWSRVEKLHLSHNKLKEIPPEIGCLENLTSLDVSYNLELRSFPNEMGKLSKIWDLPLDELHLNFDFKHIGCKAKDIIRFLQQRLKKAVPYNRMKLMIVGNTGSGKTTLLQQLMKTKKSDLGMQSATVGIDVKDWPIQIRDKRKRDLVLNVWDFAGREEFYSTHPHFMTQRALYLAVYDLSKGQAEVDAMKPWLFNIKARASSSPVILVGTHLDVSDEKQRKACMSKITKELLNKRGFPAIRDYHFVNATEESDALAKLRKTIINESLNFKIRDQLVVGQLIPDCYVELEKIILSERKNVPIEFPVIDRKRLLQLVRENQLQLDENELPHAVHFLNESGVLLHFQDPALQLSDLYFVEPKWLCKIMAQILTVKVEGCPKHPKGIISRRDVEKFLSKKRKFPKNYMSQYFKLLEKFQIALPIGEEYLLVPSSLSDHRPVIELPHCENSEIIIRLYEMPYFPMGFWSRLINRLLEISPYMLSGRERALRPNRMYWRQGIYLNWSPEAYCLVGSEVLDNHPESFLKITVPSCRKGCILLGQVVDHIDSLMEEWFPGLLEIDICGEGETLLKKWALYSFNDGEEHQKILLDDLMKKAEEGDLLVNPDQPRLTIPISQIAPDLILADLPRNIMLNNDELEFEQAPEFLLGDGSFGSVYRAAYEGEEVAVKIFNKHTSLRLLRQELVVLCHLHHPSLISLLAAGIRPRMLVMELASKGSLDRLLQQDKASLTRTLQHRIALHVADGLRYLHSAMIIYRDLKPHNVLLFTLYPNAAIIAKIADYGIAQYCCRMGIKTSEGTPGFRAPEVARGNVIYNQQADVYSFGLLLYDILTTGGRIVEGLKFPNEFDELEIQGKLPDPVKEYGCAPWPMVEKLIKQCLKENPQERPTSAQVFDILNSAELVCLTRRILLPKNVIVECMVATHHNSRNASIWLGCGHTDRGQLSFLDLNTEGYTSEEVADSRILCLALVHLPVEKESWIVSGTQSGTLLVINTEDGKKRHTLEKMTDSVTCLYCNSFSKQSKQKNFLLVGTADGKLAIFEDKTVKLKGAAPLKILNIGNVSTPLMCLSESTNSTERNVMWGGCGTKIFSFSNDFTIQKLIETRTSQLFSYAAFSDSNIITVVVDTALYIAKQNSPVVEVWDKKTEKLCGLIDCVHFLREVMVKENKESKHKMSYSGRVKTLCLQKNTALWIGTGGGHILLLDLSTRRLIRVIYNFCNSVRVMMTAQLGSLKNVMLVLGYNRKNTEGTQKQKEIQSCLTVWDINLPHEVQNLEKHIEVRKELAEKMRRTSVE

| Structure (SMILES) | IC50 [nM] |
| --- | --- |
| C[C@@H]1CCNCCOc2cc(cc(N3CCOCC3)c2)-c2n[nH]c3ccc(cc23)O1 [Example 173, (13R)-13-methyl-4-(morpholin-4-yl)-7,14-dioxa-10,19,20-triazatetracyclo[13.5.2.1^2,6.0^18,21]tricosa-1(20),2(23),3,5,15,17,21-heptaene] | < 10 |
| C[C@H]1CCNC(=O)COc2cc(cc(N3CCOCC3)c2)-c2n[nH]c3ccc(cc23)O1 [Example 174, (13S)-13-methyl-4-(morpholin-4-yl)-7,14-dioxa-10,19,20-triazatetracyclo[13.5.2.1^2,6.0^18,21]tricosa-1(20),2(23),3,5,15,17,21-heptaen-9-one] | < 10 |
| C[C@H]1CCNCCOc2cc(cc(N3CCOCC3)c2)-c2n[nH]c3ccc(cc23)O1 [Example 175, (13S)-13-methyl-4-(morpholin-4-yl)-7,14-dioxa-10,19,20-triazatetracyclo[13.5.2.1^2,6.0^18,21]tricosa-1(20),2(23),3,5,15,17,21-heptaene] | < 10 |
| CC1Oc2cc(cc(N3CCOCC3)c2)-c2n[nH]c3ccc(cc23)OCCCNC1=O (stereo not drawn) [Example 176, 8-methyl-4-(morpholin-4-yl)-7,14-dioxa-10,19,20-triazatetracyclo[13.5.2.1^2,6.0^18,21]tricosa-1(20),2,4,6(23),15,17,21-heptaen-9-one] | < 10 |
| C[C@@H]1CCNC(=O)CCn2cc(cn2)-c2n[nH]c3ccc(cc23)O1 [Example 179, (12R)-12-methyl-13-oxa-4,5,9,18,19-pentaazatetracyclo [12.5.2.1^2,5.0^17,20] docosa-1(19),2(22),3,14(21),15,17(20)-hexaen-8-one] | < 10 |
| C[C@@H]1CCNCCCn2cc(cn2)-c2n[nH]c3ccc(cc23)O1 [Example 180, (12R)-12-methyl-13-oxa-4,5,9,18,19-pentaazatetracyclo [12.5.2.1^2,5.0^17,20]docosa-1(19),2(22),3,14(21),15,17(20)-hexaene] | < 100 |
| O=C1CCn2ncc(n2)-c2n[nH]c3ccc(cc23)OCCCN1 [Example 181, 13-oxa-4,5,9,18,19,22-hexaazatetracyclo[12.5.2.1^2,5.0^17,20] docosa-1(19),2(22),3,14(21),15,17(20)-hexaen-8-one] | < 10 |
| c1cc2[nH]nc3c2cc1OCCCNCCCn1ncc-3n1 [Example 182, 13-oxa-4,5,9,18,19,22-hexaazatetracyclo[12.5.2.1^2,5.0^17,20] docosa-1(19),2(22),3,14(21),15,17(20)-hexaene] | < 10 |
| C[C@@H]1NC(=O)COc2cccc(c2)-c2n[nH]c3ccc(cc23)OC[C@H]1F [Example 183, (11S,12S)-12-fluoro-11-methyl-7,14-dioxa-10,19,20-triazatetracyclo[13.5.2.1^2,6.0^18,21]tricosa-1(20),2,4,6(23),15,17,21-heptaen-9-one] | < 100 |
| C[C@@H]1NCCOc2cccc(c2)-c2n[nH]c3ccc(cc23)OC[C@H]1F [Example 184, (11S,12S)-12-fluoro-11-methyl-7,14-dioxa-10,19,20-triazatetracyclo[13.5.2.1^2,6.0^18,21]tricosa-1(20),2,4,6(23),15,17,21-heptaene] | < 100 |
| O=C1COc2cc(cc(C(F)(F)F)c2)-c2n[nH]c3ccc(cc23)OCCCN1 [Example 185, 4-(trifluoromethyl)-7,14-dioxa-10,19,20-triazatetracyclo [13.5.2.1^2,6.0^18,21]tricosa-1(20),2,4,6(23),15,17,21-heptaen-9-one] | < 10 |
| FC(F)(F)c1cc2cc(c1)-c1n[nH]c3ccc(cc13)OCCCNCCO2 [Example 186, 4-(trifluoromethyl)-7,14-dioxa-10,19,20-triazatetracyclo [13.5.2.1^2,6.0^18,21]tricosa-1(20),2,4,6(23),15,17,21-heptaene] | < 10 |
| Cc1cc2[nH]nc3c2cc1OCCCNC(=O)COc1cncc-3c1 [Example 187, 16-methyl-7,14-dioxa-4,10,19,20-tetraazatetracyclo[13.5.2.1^2,6.0^18,21]tricosa-1(20),2(23),3,5,15(22),16,18(21)-heptaen-9-one] | < 100 |
| Cc1cc2[nH]nc3c2cc1OCCCNCCOc1cncc-3c1 [Example 188, 16-methyl-7,14-dioxa-4,10,19,20-tetraazatetracyclo[13.5.2.1^2,6.0^18,21]tricosa-1(20),2(23),3,5,15(22),16,18(21)-heptaene] | < 10 |
| CN1CCCNc2ccc3[nH]nc(c3c2)-c2cncc(c2)OCC1=O [Example 190, 10-methyl-7-oxa-4,10,14,19,20-pentaazatetracyclo[13.5.2.1^2,6.0^18,21]tricosa-1(20),2,4,6(23),15,17,21-heptaen-9-one] | < 100 |
| CN1CCCOc2ccc3[nH]nc(c3c2)-c2cc(C#N)cc(c2)OCC1=O [Example 191, 10-methyl-9-oxo-7,14-dioxa-10,19,20-triazatetracyclo [13.5.2.1^2,6.0^18,21]tricosa-1(20),2,4,6(23),15,17,21-heptaene-4-carbonitrile] | < 100 |
| O=C1COc2cccc(c2)-c2n[nH]c3ccc(cc23)OCCN1 [Example 192, 7,13-dioxa-10,18,19-triazatetracyclo[12.5.2.1^2,6.0^17,20]docosa-1(19),2(22),3,5,14(21),15,17(20)-heptaen-9-one] | < 1000 |

| Structure (SMILES) | IC50 [nM] |
| --- | --- |
| O=C1COc2cncc(n2)-c2n[nH]c3ccc(cc23)OCCCN1 [Example 193, 7,14-dioxa-4,10,19,20,23-pentaazatetracyclo[13.5.2.1^2,6.0^18,21]tricosa-1(20),2(23),3,5,15(22),16,18(21)-heptaen-9-one] | < 10 |
| CN1CCCOc2ccc3[nH]nc(c3c2)-c2cc(ccn2)OCC1=O [Example 194, 10-methyl-7,14-dioxa-3,10,19,20-tetraazatetracyclo[13.5.2.1^2,6.0^18,21]tricosa-1(20),2(23),3,5,15(22),16,18(21)-heptaen-9-one] | < 1000 |
| O=C1COc2cc(F)cc(c2)-c2n[nH]c3ccc(cc23)OCCCN1 [Example 195, 4-fluoro-7,14-dioxa-10,19,20-triazatetracyclo[13.5.2.1^2,6.0^18,21]tricosa-1(20),2(23),3,5,15(22),16,18(21)-heptaen-9-one] | < 10 |
| O=C1COc2nccc(n2)-c2n[nH]c3ccc(cc23)OCCCN1 [Example 196, 7,14-dioxa-5,10,19,20,23-pentaazatetracyclo[13.5.2.1^2,6.0^18,21]tricosa-1(20),2(23),3,5,15(22),16,18(21)-heptaen-9-one] | < 10 |
| CN1CCCOc2ccc3[nH]nc(c3c2)-c2cncc(c2)OC(C)(C)C1=O [Example 197, 8,8,10-trimethyl-7,14-dioxa-4,10,19,20-tetraazatetracyclo[13.5.2.1^2,6.0^18,21]tricosa-1(20),2(23),3,5,15(22),16,18(21)-heptaen-9-one] | < 100 |
| CN1CCCOc2ccc3[nH]nc(c3c2)-c2cncc(c2)OCCC1=O [Example 198, 11-methyl-7,15-dioxa-4,11,20,21-tetraazatetracyclo [14.5.2.1^2,6.0^19,22] tetracosa-1(21),2,4,6(24),16,18,22-heptaen-10-one] | < 1000 |
| O=C1COc2cncc(c2)-c2n[nH]c3ccc(cc23)OCCN1 [Example 199, 7,13-dioxa-4,10,18,19-tetraazatetracyclo[12.5.2.1^2,6.0^17,20] docosa-1(19),2(22),3,5,14(21),15,17(20)-heptaen-9-one] | < 100 |
| CN1CCCOc2ccc3[nH]nc(c3c2)-c2cc(cnc2F)OCC1=O [Example 200, 3-fluoro-10-methyl-7,14-dioxa-4,10,19,20-tetraazatetracyclo[13.5.2.1^2,6.0^18,21]tricosa-1(20),2,4,6(23),15(22),16,18(21)-heptaen-9-one] | < 1000 |
| CC1(C)Oc2cncc(c2)-c2n[nH]c3ccc(cc23)OCCCNC1=O [Example 201, 8,8-dimethyl-7,14-dioxa-4,10,19,20-tetraazatetracyclo [13.5.2.1^2,6.0^18,21]tricosa-1(20),2(23),3,5,15,17,21-heptaen-9-one] | < 10 |
| O=C1COc2cncc(c2)-c2n[nH]c3ccc(cc23)OCC(F)(F)CN1 [Example 202, 12,12-difluoro-7,14-dioxa-4,10,19,20-tetraazatetracyclo [13.5.2.1^2,6.0^18,21]tricosa-1(20),2,4,6(23),15,17,21-heptaen-9-one] | < 10 |
| O=C1COc2cc(Br)cc(c2)-c2n[nH]c3ccc(cc23)OCCCN1 [Example 203, 4-bromo-7,14-dioxa-10,19,20-triazatetracyclo[13.5.2.1^2,6.0^18,21]tricosa-1(20),2(23),3,5,15,17,21-heptaen-9-one] | < 10 |
| O=C1COc2cc(cc(N3CCCCC3)c2)-c2n[nH]c3ccc(cc23)OCCCN1 [Example 204, 4-(piperidin-1-yl)-7,14-dioxa-10,19,20-triazatetracyclo [13.5.2.1^2,6.0^18,21]tricosa-1(20),2(23),3,5,15,17,21-heptaen-9-one] | < 10 |
| O=C1COc2cc(cc(N3CCCC3)c2)-c2n[nH]c3ccc(cc23)OCCCN1 [Example 205, 4-(pyrrolidin-1-yl)-7,14-dioxa-10,19,20-triazatetracyclo [13.5.2.1^2,6.0^18,21]tricosa-1(20),2(23),3,5,15,17,21-heptaen-9-one] | < 10 |
| O=C1COc2cc(cc(N3CCC(F)(F)C3)c2)-c2n[nH]c3ccc(cc23)OCCCN1 [Example 206, 4-(3,3-difluoropyrrolidin-1-yl)-7,14-dioxa-10,19,20-triazatetracyclo[13.5.2.1^2,6.0^18,21]tricosa-1(20),2(23),3,5,15,17,21-heptaen-9-one] | < 10 |
| O=C1COc2cc(cc(N3CCOCC3)c2)-c2n[nH]c3ccc(cc23)OCCCN1 [Example 207, 4-(morpholin-4-yl)-7,14-dioxa-10,19,20-triazatetracyclo [13.5.2.1^2,6.0^18,21]tricosa-1(20),2(23),3,5,15,17,21-heptaen-9-one] | < 10 |
| O=C1COc2cc(C3=CCOCC3)cc(c2)-c2n[nH]c3ccc(cc23)OCCCN1 [Example 208, 4-(3,6-dihydro-2H-pyran-4-yl)-7,14-dioxa-10,19,20-triazatetracyclo[13.5.2.1^2,6.0^18,21]tricosa-1(20),2(23),3,5,15,17,21-heptaen-9-one] | < 10 |
